Experimental data from paper PMC6576746, “Rational discovery of dual-indication multi-target PDE/Kinase inhibitor for precision anti-cancer therapy using structural systems pharmacology” (PLoS Computational Biology, 2019).

How the values were obtained:
Experiment in all cases: biochemical
Parameters in all cases: DiscoverX KinomeScan competition binding assay across human kinases; per cent of control at 10 and 100 uM
TAK1 = biological target: T1, TAK1 (Homo sapiens, UniProt O43318); settings: competition binding, % of control; read-out: Percent Control (100 uM Levosimendan)
T1 construct: gene MAP3K7
How it was run: (§1)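 KinomeScan competition binding was run across a human kinase panel at 10 μM and 100 μM levosimendan. Results are %control = (test − positive control)/(negative control − positive control) × 100.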

SBK1 = SBK1 (Homo sapiens, UniProt Q52WX2); settings: competition binding, % of control; read-out: Percent Control (100 uM Levosimendan)
How it was run: as §1

MAP3K3 = MAP3K3 (Homo sapiens, UniProt Q99759); settings: competition binding, % of control; read-out: Percent Control (100 uM Levosimendan)
How it was run: as §1

AMPK-alpha1 = biological target: T2, AMPK-alpha1 (Homo sapiens, UniProt Q13131); settings: competition binding, % of control; read-out: Percent Control (100 uM Levosimendan)
T2 construct: gene PRKAA1
How it was run: as §1

PIK3CA(M1043I) = PIK3CA(M1043I) (Homo sapiens, UniProt P42336, M1043I); settings: competition binding, % of control; read-out: Percent Control (100 uM Levosimendan)
How it was run: as §1

STK33 = STK33 (Homo sapiens, UniProt Q9BYT3); settings: competition binding, % of control; read-out: Percent Control (100 uM Levosimendan)
How it was run: as §1

RIPK4 = RIPK4 (Homo sapiens, UniProt P57078); settings: competition binding, % of control; read-out: Percent Control (100 uM Levosimendan)
How it was run: as §1

ACVR1 = ACVR1 (Homo sapiens, UniProt Q04771); settings: competition binding, % of control
How it was run: as §1

[1] = biological target: T3, ABL1(T315I)-phosphorylated (Homo sapiens, UniProt P00519, T315I); settings: competition binding, % of control; read-out: Percent Control (100 uM Levosimendan)
T3 construct: phosphorylated
How it was run: as §1

ALK = ALK (Homo sapiens, UniProt Q9UM73); settings: competition binding, % of control; read-out: Percent Control (100 uM Levosimendan)
How it was run: as §1

MAP4K4 = MAP4K4 (Homo sapiens, UniProt O95819); settings: competition binding, % of control; read-out: Percent Control (100 uM Levosimendan)
How it was run: as §1

ULK3 = ULK3 (Homo sapiens, UniProt Q6PHR2); settings: competition binding, % of control; read-out: Percent Control (100 uM Levosimendan)
How it was run: as §1

CDK8 = CDK8 (Homo sapiens, UniProt P49336); settings: competition binding, % of control; read-out: Percent Control (100 uM Levosimendan)
How it was run: as §1

TNNI3K = TNNI3K (Homo sapiens, UniProt Q59H18); settings: competition binding, % of control; read-out: Percent Control (100 uM Levosimendan)
How it was run: as §1

S6K1 = biological target: T4, S6K1 (Homo sapiens, UniProt P23443); settings: competition binding, % of control
T4 construct: gene RPS6KB1
How it was run: as §1

PLK3 = PLK3 (Homo sapiens, UniProt Q9H4B4); settings: competition binding, % of control; read-out: Percent Control (100 uM Levosimendan)
How it was run: as §1

CDKL5 = CDKL5 (Homo sapiens, UniProt O76039); settings: competition binding, % of control; read-out: Percent Control (100 uM Levosimendan)
How it was run: as §1

ERK2 = biological target: T5, ERK2 (Homo sapiens, UniProt P28482); settings: competition binding, % of control; read-out: Percent Control (100 uM Levosimendan)
T5 construct: gene MAPK1
How it was run: as §1

GCN2(Kin.Dom.2,S808G) = biological target: T6, GCN2(Kin.Dom.2,S808G) (Homo sapiens, UniProt Q9P2K8, S808G); settings: competition binding, % of control; read-out: Percent Control (100 uM Levosimendan)
T6 construct: gene EIF2AK4; Kin.Dom.2
How it was run: as §1

[2] = read-out: Percent Control (10 uM Levosimendan)
[3] = read-out: Percent Control (100 uM Levosimendan)

ACVR1, sequence (Q04771 whole entry): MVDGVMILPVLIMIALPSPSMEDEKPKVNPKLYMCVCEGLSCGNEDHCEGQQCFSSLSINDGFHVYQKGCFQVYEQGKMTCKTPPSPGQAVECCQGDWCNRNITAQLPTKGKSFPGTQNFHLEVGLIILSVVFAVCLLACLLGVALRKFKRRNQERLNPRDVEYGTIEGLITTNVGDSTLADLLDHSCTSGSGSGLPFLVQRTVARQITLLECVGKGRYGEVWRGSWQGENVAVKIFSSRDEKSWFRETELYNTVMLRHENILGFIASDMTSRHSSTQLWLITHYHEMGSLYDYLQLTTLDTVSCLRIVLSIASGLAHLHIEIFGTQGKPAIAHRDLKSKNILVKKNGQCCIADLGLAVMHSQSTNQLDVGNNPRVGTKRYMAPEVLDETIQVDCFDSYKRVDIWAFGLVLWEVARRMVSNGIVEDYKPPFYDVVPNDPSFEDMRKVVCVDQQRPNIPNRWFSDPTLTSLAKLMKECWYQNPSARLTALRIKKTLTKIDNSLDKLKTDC
T4 sequence (P23443 whole entry): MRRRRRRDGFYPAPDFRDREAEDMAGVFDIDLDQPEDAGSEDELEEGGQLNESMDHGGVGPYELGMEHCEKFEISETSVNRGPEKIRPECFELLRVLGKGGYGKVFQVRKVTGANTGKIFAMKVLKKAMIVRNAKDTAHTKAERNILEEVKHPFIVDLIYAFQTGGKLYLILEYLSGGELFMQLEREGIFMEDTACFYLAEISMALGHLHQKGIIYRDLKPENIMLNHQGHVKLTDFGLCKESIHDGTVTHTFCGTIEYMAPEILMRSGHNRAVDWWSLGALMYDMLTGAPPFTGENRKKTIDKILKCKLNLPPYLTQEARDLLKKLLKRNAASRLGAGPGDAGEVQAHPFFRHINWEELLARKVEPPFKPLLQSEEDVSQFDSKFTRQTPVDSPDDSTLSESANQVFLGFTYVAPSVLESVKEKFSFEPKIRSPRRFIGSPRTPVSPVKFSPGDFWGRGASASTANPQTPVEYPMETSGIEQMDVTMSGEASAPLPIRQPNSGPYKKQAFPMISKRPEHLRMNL
T1 sequence (O43318 whole entry): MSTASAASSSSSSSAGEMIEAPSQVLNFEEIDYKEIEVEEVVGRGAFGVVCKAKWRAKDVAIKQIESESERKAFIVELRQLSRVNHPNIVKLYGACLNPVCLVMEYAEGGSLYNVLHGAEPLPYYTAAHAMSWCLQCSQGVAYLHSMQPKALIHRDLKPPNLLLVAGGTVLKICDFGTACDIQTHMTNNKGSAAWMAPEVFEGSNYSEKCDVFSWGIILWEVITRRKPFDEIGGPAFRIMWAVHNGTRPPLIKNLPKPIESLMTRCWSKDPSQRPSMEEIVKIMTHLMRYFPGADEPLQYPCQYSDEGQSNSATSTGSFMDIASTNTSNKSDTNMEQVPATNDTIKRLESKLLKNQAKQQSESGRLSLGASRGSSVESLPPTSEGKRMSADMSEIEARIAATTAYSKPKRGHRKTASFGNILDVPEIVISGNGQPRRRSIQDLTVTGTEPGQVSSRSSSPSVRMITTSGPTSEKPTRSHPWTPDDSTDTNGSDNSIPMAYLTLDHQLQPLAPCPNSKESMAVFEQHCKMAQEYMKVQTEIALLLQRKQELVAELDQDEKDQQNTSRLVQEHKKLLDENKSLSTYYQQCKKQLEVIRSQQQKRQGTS
T2 sequence (Q13131 whole entry): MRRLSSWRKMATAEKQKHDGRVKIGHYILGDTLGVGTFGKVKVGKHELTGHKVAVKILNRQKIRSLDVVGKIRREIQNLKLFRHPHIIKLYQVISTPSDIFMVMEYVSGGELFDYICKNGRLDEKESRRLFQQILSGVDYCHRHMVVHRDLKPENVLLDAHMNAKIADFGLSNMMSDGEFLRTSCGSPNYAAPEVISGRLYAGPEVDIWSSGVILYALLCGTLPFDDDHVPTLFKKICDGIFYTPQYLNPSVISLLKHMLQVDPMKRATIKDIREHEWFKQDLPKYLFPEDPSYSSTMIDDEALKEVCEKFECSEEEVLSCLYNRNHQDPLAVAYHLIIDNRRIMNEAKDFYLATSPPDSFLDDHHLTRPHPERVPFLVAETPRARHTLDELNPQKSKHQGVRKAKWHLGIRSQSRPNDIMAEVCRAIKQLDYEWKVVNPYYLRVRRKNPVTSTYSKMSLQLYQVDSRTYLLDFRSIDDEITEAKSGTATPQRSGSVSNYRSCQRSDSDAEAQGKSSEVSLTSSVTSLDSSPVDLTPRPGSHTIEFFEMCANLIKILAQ
PIK3CA(M1043I), sequence (P42336 whole entry M1043I): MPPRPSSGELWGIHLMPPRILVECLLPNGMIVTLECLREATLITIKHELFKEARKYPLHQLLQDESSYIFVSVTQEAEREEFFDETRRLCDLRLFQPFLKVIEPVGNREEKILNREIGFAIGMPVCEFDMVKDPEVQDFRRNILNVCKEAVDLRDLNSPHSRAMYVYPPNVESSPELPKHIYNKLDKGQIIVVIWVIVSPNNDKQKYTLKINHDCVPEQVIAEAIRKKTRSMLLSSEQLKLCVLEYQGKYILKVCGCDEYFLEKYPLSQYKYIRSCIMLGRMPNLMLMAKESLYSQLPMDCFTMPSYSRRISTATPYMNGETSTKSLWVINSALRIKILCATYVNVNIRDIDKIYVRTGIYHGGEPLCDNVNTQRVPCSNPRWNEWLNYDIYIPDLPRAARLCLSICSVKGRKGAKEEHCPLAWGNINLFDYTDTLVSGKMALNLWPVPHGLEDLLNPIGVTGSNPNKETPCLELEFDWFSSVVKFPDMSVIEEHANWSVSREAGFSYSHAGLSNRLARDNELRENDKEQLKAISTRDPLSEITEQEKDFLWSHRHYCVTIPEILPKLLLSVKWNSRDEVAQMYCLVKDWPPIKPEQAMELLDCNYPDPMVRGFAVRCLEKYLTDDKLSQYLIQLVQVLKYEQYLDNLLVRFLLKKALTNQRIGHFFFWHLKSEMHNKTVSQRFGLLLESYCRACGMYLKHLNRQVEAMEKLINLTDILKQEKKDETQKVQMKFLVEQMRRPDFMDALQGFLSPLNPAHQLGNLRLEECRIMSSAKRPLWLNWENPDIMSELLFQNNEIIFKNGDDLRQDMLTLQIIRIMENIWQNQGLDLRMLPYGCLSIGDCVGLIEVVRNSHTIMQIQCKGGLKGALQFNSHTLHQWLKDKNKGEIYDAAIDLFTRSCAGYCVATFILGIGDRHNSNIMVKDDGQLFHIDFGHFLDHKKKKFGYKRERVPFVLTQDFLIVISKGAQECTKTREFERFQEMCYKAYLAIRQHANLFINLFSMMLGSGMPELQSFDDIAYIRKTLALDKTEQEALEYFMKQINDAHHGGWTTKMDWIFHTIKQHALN
PLK3, sequence (Q9H4B4 whole entry): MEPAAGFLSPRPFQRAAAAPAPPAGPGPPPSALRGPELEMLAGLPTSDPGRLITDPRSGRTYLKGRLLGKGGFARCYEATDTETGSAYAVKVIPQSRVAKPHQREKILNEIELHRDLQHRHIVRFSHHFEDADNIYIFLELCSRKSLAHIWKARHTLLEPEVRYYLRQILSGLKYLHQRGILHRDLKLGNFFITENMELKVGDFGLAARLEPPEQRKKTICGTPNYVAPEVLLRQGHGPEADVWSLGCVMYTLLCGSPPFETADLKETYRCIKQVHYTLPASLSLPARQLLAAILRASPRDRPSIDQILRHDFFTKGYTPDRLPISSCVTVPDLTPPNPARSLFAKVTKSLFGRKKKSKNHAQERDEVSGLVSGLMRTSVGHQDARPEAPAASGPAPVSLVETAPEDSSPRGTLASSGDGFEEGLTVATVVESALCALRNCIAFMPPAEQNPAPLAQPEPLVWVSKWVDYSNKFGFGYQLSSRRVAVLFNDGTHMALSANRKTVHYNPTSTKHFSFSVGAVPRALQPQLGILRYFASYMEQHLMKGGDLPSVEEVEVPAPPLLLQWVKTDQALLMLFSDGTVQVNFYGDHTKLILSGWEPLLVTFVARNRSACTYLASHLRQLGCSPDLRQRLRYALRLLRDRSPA
CDKL5, sequence (O76039 whole entry): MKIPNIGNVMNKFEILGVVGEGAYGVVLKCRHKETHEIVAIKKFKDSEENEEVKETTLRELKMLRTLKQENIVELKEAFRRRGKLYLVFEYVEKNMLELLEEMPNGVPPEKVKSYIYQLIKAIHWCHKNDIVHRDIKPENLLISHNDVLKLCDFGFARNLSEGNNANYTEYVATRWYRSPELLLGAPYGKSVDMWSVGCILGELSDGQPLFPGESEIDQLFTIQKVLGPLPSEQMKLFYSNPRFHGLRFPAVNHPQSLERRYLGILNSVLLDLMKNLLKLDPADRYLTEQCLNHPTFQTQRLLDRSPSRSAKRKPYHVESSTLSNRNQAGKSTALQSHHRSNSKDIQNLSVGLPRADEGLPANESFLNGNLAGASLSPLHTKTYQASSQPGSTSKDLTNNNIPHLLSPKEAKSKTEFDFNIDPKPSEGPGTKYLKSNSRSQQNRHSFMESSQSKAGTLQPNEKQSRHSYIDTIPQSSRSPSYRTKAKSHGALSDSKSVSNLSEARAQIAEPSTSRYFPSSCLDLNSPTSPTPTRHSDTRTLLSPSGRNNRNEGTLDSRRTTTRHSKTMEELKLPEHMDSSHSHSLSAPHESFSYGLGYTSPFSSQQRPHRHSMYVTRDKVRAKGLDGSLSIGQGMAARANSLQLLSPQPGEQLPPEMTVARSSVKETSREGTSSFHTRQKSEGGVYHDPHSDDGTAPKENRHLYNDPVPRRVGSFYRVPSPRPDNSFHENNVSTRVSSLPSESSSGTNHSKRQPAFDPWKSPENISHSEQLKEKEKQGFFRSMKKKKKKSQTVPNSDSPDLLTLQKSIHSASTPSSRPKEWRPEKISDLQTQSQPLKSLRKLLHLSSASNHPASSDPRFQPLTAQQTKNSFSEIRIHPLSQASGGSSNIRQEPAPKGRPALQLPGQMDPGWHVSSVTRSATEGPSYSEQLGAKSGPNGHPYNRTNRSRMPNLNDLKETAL

A remaining binding at 100 µM (TAK1) of 78%, a remaining binding at 100 µM (SBK1) of 78% and a remaining binding at 100 µM (MAP3K3) of 66% were found for `C[C@@H]1CC(=O)NN=C1c1ccc(NN=C(C#N)C#N)cc1` [levosimendan] in this work. The remaining binding at 100 µM (AMPK-alpha1) was 83%, the remaining binding at 100 µM (PIK3CA(M1043I)) was 100% and the remaining binding at 100 µM (STK33) was 100%. For the same compound, the remaining binding at 100 µM (RIPK4) was 99%, the remaining binding at 10 µM (ACVR1; [2]) was 55% and the remaining binding at 100 µM (ACVR1; [3]) was 6.5%. It also gave a remaining binding at 100 µM [1] of 64%, a remaining binding at 100 µM (ALK) of 76% and a remaining binding at 100 µM (MAP4K4) of 100%. For the same compound, the remaining binding at 100 µM (ULK3) was 77%, the remaining binding at 100 µM (CDK8) was 100% and the remaining binding at 100 µM (TNNI3K) was 95%. For the same compound, the remaining binding at 10 µM (S6K1; [2]) was 84%, the remaining binding at 100 µM (S6K1; [3]) was 43% and the remaining binding at 100 µM (PLK3) was 97%. It also gave a remaining binding at 100 µM (CDKL5) of 94%, a remaining binding at 100 µM (ERK2) of 100% and a remaining binding at 100 µM (GCN2(Kin.Dom.2,S808G)) of 100%.
